Measurements reported in US12291508B2, “Hydrazide containing nuclear transport modulators and uses thereof” (Karyopharm Therapeutics Inc., priority 2011, dated 2025).
Structures can show the parent of a compound that is named as a salt.

What was measured:
[1] = test system: Zucker rats; assay type: in vivo; conditions: orally administered at 0.625, 1.25 and 2.5 mg/kg
Description: For novel object recognition test, Zucker rats were placed into a test chamber (dimension 26″×18″×18″; L×W×H). Food and water was not be permitted during the test. The test had 3 phases: a) Familiarisation phase: Rats were singly placed in test chamber and allowed to freely explore for 60 min. The distance travelled by the animal during this phase was recorded using tracking software (AnyMaze system). The purpose of this phase was to familiarise the animals to the test apparatus. […] The distance travelled by the animal during this sample phase was automatically recorded, as well as the time spent by the animal interacting with the novel objects, using a tracking software system and visual observation. […] The distance travelled by the animal during the test phase was automatically recorded, as well as the time spent by the animal interacting with the novel and familiar objects, using a tracking software system and visual observation. Object interaction scores during both the sample and test phase were independently recorded by 2 observers. The final score represents the difference score between each reading. […]

[2] = test system: MDA-MB-157; test: Cell proliferation assay, MDA-MB-157; assay type: cell-based; conditions: Homo sapiens; MDA-MB-157, type BaB, 72 h
Description: (§1) The cells were seeded at 5×10^3 to 1.5×10^4 cells (depending on cell type) in each well of a 96-well plate in 100 μL of fresh culture medium and adherent cells were allowed to attach overnight. The stock solutions of the compounds were diluted in cell culture medium to obtain eight concentrations of each drug, ranging from 1 nM to 30 μM and DMSO at less than 1% v/v was used as a negative control. The resulting drug solutions were transferred onto the cells. After 72 h of treatment, 20 μl of CellTiter 96® AQueous reagent was added into each well of the 96-well assay plates and the plate was incubated at 37° C. for 1-4 hours in a humidified, 5% CO2 atmosphere. Then the absorbance of each well was recorded at 490 nm using a 96-well plate reader. In most cases, the assay was performed in triplicate and the results were presented as half maximal inhibitory concentration (IC50).

[3] = test system: UACC812; test: Cell proliferation assay, UACC812; assay type: cell-based; conditions: Homo sapiens, UACC-812; UACC812, type Lu, 72 h
Description: as §1

[4] = test system: HCC-1143; test: Cell proliferation assay, HCC-1143; assay type: cell-based; conditions: Homo sapiens, HCC1143; HCC-1143, type BaA, 72 h
Description: as §1

[5] = test system: MDA-MB-468 cells; test: Anti-apoptosis and cell cycle proteins immunoblot, MDA-MB-468; assay type: cell-based; conditions: MDA-MB-468, increasing concentrations, 24 hours
[6] = test system: HS578T cells; test: Long-term growth assay, HS578T; assay type: cell-based; conditions: 1 μM, 7 days, crystal violet
Text: (§2) At the end of the assay, media was removed from the cells and the remaining cells were stained with crystal violet.

[7] = test system: MCF10A; test: Cell proliferation assay, MCF10A; assay type: cell-based; conditions: Homo sapiens, MCF-10A, type BaB, 72 h
Description: as §1

[8] = test system: MDA-MB-468 TNBC cells; test: Apoptosis marker immunoblot, MDA-MB-468; assay type: cell-based; conditions: MDA-MB-468, 0 to 10 μM, 24 hours
Description: MDA-MB-468 TNBC, DU4475 and HS578T TNBC cells were exposed to concentrations of Compound 1-3 ranging from 0 to 10 μM for 24 hours. After 24 hours, whole protein cell extracts were run on immunoblots and were exposed to antibodies against the proteins indicated in FIGS. 2A-2C.

[9] = test system: ZR7530; test: Cell proliferation assay, ZR7530; assay type: cell-based; conditions: Homo sapiens, ZR-75-30; ZR7530, type Lu/HER+, 72 h
Description: as §1

[10] = test system: MDA-MB-231; test: Cell proliferation assay, MDA-MB-231; assay type: cell-based; conditions: Homo sapiens; MDA-MB-231, type BaB, 72 h
Description: as §1

[11] = test system: MDA-MB-231 cells; test: Long-term growth assay, MDA-MB-231; assay type: cell-based; conditions: MDA-MB-231, 1 μM, 10 days, crystal violet
Text: as §2

[12] = test system: MDA-MB-468 TNBC Basal A cells; test: Nuclear localization of FOXO3a and IκB, MDA-MB-468; assay type: cell-based; conditions: MDA-MB-468, 1 μM, 24 hours
Description: (§3) MDA-MB-468 TNBC Basal A and BT-20 TNBC Basal B cells were exposed to DMSO or 1 μM Compound 1-3 for 24 hours and then stained for FOXO3a or IκB with or without DAPI nuclear stain. The stained cells were examined for nuclear localization.

[13] = test system: BT-20 TNBC Basal B cells; test: Nuclear localization of FOXO3a and IκB, BT-20; assay type: cell-based; conditions: BT-20, 1 μM, 24 hours
Description: as §3

[14] = test system: HS578T; test: Cell proliferation assay, HS578T; assay type: cell-based; conditions: Homo sapiens, Hs-578T, type BaB, 72 h
Description: as §1

[15] = test system: HCC-1569; test: Cell proliferation assay, HCC-1569; assay type: cell-based; conditions: Homo sapiens, HCC1569; HCC-1569, type BaA, 72 h
Description: as §1

Row | SMILES | novel object recognition (object preference) [1] | IC50 [2] [nM] | IC50 [3] [nM] | IC50 [4] [nM] | MCL-1 protein level [5] | long-term growth [6] | IC50 [7] [nM] | apoptosis (PARP, caspase 3, cleaved PARP, cleaved caspase 3) [8] | IC50 [9] [nM] | IC50 [10] [nM] | long-term growth [11] | localization of FOXO3a and IκB [12] | localization of FOXO3a and IκB [13] | IC50 [14] [nM] | IC50 [15] [nM]
1 | O=C(/C=C\n1cnc(-c2cc(C(F)(F)F)cc(C(F)(F)F)c2)n1)NNc1ccccn1 [Compound I-4, (Z)-3-(3-(3,5-bis(trifluoromethyl)phenyl)-1H-1,2,4-triazol-1-yl)-N′-(pyridin-2-yl)acrylohydrazide hydrochloride] | induced trends of improved novel object recognition |  |  |  |  |  |  |  |  |  |  |  |  |  | 
2 | O=C(/C=C\n1cnc(-c2cc(C(F)(F)F)cc(C(F)(F)F)c2)n1)NNc1cnccn1 [Compound I-3, (Z)-3-(3-(3,5-bis(trifluoromethyl)phenyl)-1H-1,2,4-triazol-1-yl)-N′-(pyrazin-2-yl)acrylohydrazide] |  | 1300 | 590 | 600 | a reduction in MCL-1 is observed | inhibited the long-term growth | 180 | induces apoptosis | 19000 | 10 | inhibited the long-term growth | both FOXO3a and IκB were localized in the cell nucleus | both FOXO3a and IκB were localized in the cell nucleus | 1500 | 960
